In assay [1] the target is T1, human recombinant JAK2 protein (Homo sapiens, UniProt O60674).
T1 construct: purchased Carna Biosciences 08-045
The assay can be described thus: JAK2 Inhibition Assay (HTRF kinase assay). Type of assay: biochemical. The note with it: human recombinant JAK2, 2.5 μM ATP substrate solution. The procedure, abridged:
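Recombinant human JAK2 was preincubated 15 min at room temperature with compound in buffer containing 5 mM MgCl2, 1 mM DTT and 0.01% Brij35. Substrate solution (2.5 μM ATP, 0.25 μM biotinylated TK substrate) was then added for 30 min. Phosphorylation was detected by HTRF (665/620 nm ratio; no-enzyme = 100% inhibition), and IC50 was fitted from an 8-point, 4-fold series.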
(In TR-FRET formats the signal depends on donor and acceptor labels being close together.)

The target of assay [2] is T2, human recombinant TYK2 protein (Homo sapiens, UniProt P29597).
T2 construct: purchased Carna Biosciences 08-147
T2 sequence (P29597 871-1187 limits assumed): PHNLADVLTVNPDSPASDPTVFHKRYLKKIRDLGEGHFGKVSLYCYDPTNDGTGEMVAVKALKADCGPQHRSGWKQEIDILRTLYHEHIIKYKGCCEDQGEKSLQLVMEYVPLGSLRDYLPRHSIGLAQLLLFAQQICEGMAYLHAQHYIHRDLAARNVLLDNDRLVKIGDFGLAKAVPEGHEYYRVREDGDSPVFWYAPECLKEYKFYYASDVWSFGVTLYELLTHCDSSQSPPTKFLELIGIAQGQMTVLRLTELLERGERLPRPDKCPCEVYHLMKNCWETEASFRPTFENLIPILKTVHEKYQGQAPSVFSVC
The assay can be described thus: TYK2 Inhibition Assay (HTRF kinase assay). Type of assay: biochemical. The conditions noted are these: human recombinant TYK2, 11.25 μM ATP substrate solution. The essentials:
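Recombinant human TYK2 was pre-incubated 15 min at room temperature with compound, then reacted for 40 min with biotinylated tyrosine-kinase substrate and ATP (substrate solution 11.25 μM ATP, 0.5 μM substrate; 5 mM MgCl2, 0.01% Brij35). Phosphorylation was read by HTRF 665/620 ratio, normalised to no-enzyme and no-compound controls, and IC50 was fitted from 8 4-fold dilutions.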

Assay [3] relates to IL-12-induced IFN-γ secretion in NK92 cells. The assay can be described thus: Inhibition of IL-12-induced IFN-γ Secretion in NK92 Cells (ELISA). Type of assay: cell-based, human. The conditions noted are these: Homo sapiens, 24 hours incubation, 8 concentration points, read-out: IC50 (NK92_IL12/IFNγ). The essentials: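 NK92 cells (100,000/well, IL-2-free medium) rested overnight, then treated with compound plus IL-12 for 24 h at 37 °C. Secreted IFN-γ measured in supernatant by ELISA. Inhibition normalized to unstimulated and IL-12/0.2% DMSO controls; IC50 fitted from 8 concentrations.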
On the technique in general: In an ELISA, binding on a coated surface is turned into a signal by an enzyme label.

T1 sequence (O60674 826-1132 limits assumed): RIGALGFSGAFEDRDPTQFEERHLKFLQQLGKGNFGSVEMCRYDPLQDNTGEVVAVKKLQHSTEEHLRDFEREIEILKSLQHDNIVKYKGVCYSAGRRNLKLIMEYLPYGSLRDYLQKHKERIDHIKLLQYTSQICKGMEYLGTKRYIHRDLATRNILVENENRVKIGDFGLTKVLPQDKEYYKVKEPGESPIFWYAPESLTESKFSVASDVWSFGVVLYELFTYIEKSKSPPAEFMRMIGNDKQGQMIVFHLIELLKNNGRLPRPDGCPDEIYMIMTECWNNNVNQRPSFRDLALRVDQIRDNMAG

On to `[2H]C([2H])([2H])n1cc(Nc2ncc(Cl)c(N3C[C@@H]4CN(C(=O)CC#N)C[C@]4(C)C3)n2)cn1` [Compound 99, 3-((3aS,6aR)-5-(5-chloro-2-((1-(methyl-d3)-1H-pyrazol-4-yl)amino)pyrimidin-4-yl)-3a-methylhexahydropyrrolo[3,4-c]pyrrol-2(1H)-yl)-3-oxopropanenitrile], for which the IC50 turned out to be 0.5 nM in assay [1], 0.1 nM in assay [2] and 158 nM in assay [3].

With `Cn1cc(Nc2ncc(Cl)c(N3C[C@@H]4CN(C(=O)[C@@H]5CC5(F)F)C[C@]4(C)C3)n2)cn1` [Compound 90], the figures for the IC50 in assay [1], in assay [2] and in assay [3] were 0.6 nM, 0.1 nM and 96 nM, respectively.

On to `Cn1cc(Nc2ncc(Cl)c(N3C[C@]4(C)CN(Cc5ccno5)C[C@]4(C)C3)n2)cn1` [Compound 50, 5-chloro-4-((3aR,6aS)-5-(isoxazol-5-ylmethyl)-3a,6a-dimethylhexahydropyrrolo[3,4-c]pyrrol-2(1H)-yl)-N(1-methyl-1H-pyrazol-4-yl)pyrimidin-2-amine], for which the results for the IC50 in assay [1], in assay [2] and in assay [3] were 0.1 nM, 0.3 nM and 43 nM, respectively.

As for `Cc1cnc(Nc2cnn(C)c2)nc1N1C[C@]2(C)CN(C(=O)[C@@H]3CC3(F)F)C[C@]2(C)C1` [Compound 56, ((S)-2,2-difluorocyclopropyl)((3aR,6aS)-3a,6a-dimethyl-5-(5-methyl-2-((1-methyl-1H-pyrazol-4-yl)amino)pyrimidin-4-yl)hexahydropyrrolo[3,4-c]pyrrol-2(1H)-yl)methanone], the IC50 in assay [1] worked out at 2.5 nM; in assay [2], 1.7 nM; in assay [3], 505 nM.

Consider `CCNC(=O)c1ccc(Nc2ncc(F)c(N3C[C@]4(C)CN(C(=O)C5CC5(F)F)C[C@]4(C)C3)n2)cc1` (stereo partly drawn) [Compound 10, 4-((4-((3aR,6aS)-5-(2,2-difluorocyclopropane-1-carbonyl)-3a,6a-dimethylhexahydropyrrolo[3,4-c]pyrrol-2(IH)-yl)-5-fluoropyrimidin-2-yl)amino)-N-ethylbenzamide], for which the IC50 in assay [1] turned out to be 15 nM; in assay [2] it was 2.4 nM; in assay [3], 3800 nM.

As to `Cn1cc(Nc2ncc(Cl)c(N3C[C@]4(C)CN(c5ccncn5)C[C@]4(C)C3)n2)cn1` [Compound 25, 5-chloro-4-((3aR,6aS)-3a,6a-dimethyl-5-(pyrimidin-4-yl)hexahydropyrrolo[3,4-c]pyrrol-2(1H)-yl)-N-(1-methyl-1H-pyrazol-4-yl)pyrimidin-2-amine], the IC50 in assay [1] was 0.9 nM; in assay [2] it was 0.3 nM; in assay [3], 399 nM.

In the case of `Cn1cc(Nc2ncc(Cl)c(N3C[C@@]4(C)CN(CC#N)C(=O)[C@@]4(C)C3)n2)cn1` (racemic) [Compound 92, cis-2-(5-(5-Chloro-2-((1-methyl-1H-pyrazol-4-yl)amino)pyrimidin-4-yl)-3a,6a-dimethyl-1-oxohexahydropyrrolo[3,4-c]pyrrol-2(1H)-yl)acetonitrile], the IC50 in assay [1] came to 4.1 nM; in assay [2], 1.1 nM; in assay [3], 398 nM.

Take `C[C@@]12CN(C(=O)[C@@H]3CC3(F)F)C[C@]1(C)CN(c1nc(Nc3cn[nH]c3)ncc1Cl)C2` [Compound 29, ((3aR,6aS)-5-(2((1H-pyrazol-4-yl)amino)-5-chloropyrimidin-4-yl)-3a,6a-dimethylhexahydropyrrolo[3,4-c]pyrrol-2(1H)-yl)((S)-2,2-difluorocyclopropyl)methanone]: the results for the IC50 in assay [1], in assay [2] and in assay [3] were 0.5 nM, 0.4 nM and 380 nM, respectively.

Regarding `C[C@@]12CN(C(=O)CC#N)C[C@]1(C)CN(c1nc(Nc3cn[nH]c3)ncc1Cl)C2` [Compound 28, 3-((3aR,6aS)-5-(2-((1H-pyrazol-4-yl)amino)-5-chloropyrimidin-4-yl)-3a,6a-dimethylhexahydropyrrolo[3,4-c]pyrrol-2(1H)-yl)-3-oxopropanenitrile], the IC50 in assay [1] worked out at 0.4 nM; in assay [2] it was 0.2 nM; in assay [3] it was 2210 nM.

Consider `COCC(=O)N1C[C@@]2(C)CN(c3nc(Nc4cnn(C)c4)ncc3Cl)C[C@@]2(C)C1` [Compound 37, 1-((3aR,6aS)-5-(5-chloro-2-((1-methyl-1H-pyrazol-4-yl)amino)pyrimidin-4-yl)-3a,6a-dimethylhexahydropyrrolo[3,4-c]pyrrol-2(1H)-yl)-2-methoxyethan-1-one], for which the IC50 worked out at 15 nM in assay [1], 12 nM in assay [2] and 2100 nM in assay [3].

In the case of `Cn1cc(Nc2ncc(Cl)c(N3C[C@H]4CN(C(=O)CC#N)C[C@H]4C3)n2)cn1` [Compound 26, 3-((3aR,6aS)-5-(5-chloro-2-((1-methyl-H-pyrazol-4-yl)amino)pyrimidin-4-yl)hexahydropyrrolo[3,4-c]pyrrol-2(1H)-yl)-3-oxopropanenitrile], the IC50 came out at 10 nM in assay [1], 6.1 nM in assay [2] and 652 nM in assay [3].

Consider `Cn1cc(Nc2ncc(Cl)c(N3C[C@H]4CN(C(=O)C5CC5)C[C@@]4(C)C3)n2)cn1` [Compound 87, ((3aR,6aS)-5-(5-chloro-2-((1-methyl-1H-pyrazol-4-yl)amino)pyrimidin-4-yl)-3a-methylhexahydropyrrolo[3,4-c]pyrrol-2(1H)-yl)(cyclopropyl)methanone], for which the IC50 came out at 9 nM in assay [1], 6 nM in assay [2] and 959 nM in assay [3].

`Cn1cc(Nc2ncc(Cl)c(N3C[C@]4(C)CN(C(=O)C(C)(C)C#N)C[C@]4(C)C3)n2)cn1` [Compound 45, 3-((3aR,6aS)-5-(5-chloro-2-((1-methyl-1H-pyrazol-4-yl)amino)pyrimidin-4-yl)-3a,6a-dimethylhexahydropyrrolo[3,4-c]pyrrol-2(1H)-yl)-2,2-dimethyl-3-oxopropanenitrile]: the IC50 in assay [1] worked out at 19 nM; in assay [2] it was 12 nM; in assay [3], 5390 nM.

Take `Cn1cc(Nc2ncc(Cl)c(N3C[C@]4(C)CN(CC#N)C[C@]4(C)C3)n2)cn1` [Compound 85, 2-((3aR,6aS)-5-(5-chloro-2-((1-methyl-1H-pyrazol-4-yl)amino)pyrimidin-4-yl)-3a,6a-dimethylhexahydropyrrolo[3,4-c]pyrrol-2(1H)-yl)acetonitrile]: the values for the IC50 in assay [1], in assay [2] and in assay [3] were 1.7 nM, 2.4 nM and 5350 nM, respectively.

Regarding `Cn1cc(Nc2ncc(Cl)c(N3C[C@H]4CN(C(=O)[C@@H]5CC5(F)F)C[C@H]4C3)n2)cn1` [Compound 27, ((3aR,6aS)-5-(5-chloro-2-((1-methyl-1H-pyrazol-4-yl)amino)pyrimidin-4-yl)hexahydropyrrolo[3,4-c]pyrrol-2(1H)-yl)((S)-2,2-difluorocyclopropyl)methanone], the IC50 in assay [1] came out at 15 nM; in assay [2], 16 nM; in assay [3], 847 nM.

Regarding `Cn1cc(Nc2ncc(Cl)c(N3C[C@H]4CN(C(=O)C5CC5)C[C@@]4(C)C3)n2)cn1` (racemic) [Compound 62, cis-(5-(5-chloro-2-((1-methyl-1H-pyrazol-4-yl)amino)pyrimidin-4-yl)-3a-methylhexahydropyrrolo[3,4-c]pyrrol-2(1H)-yl)(cyclopropyl)methanone], the results for the IC50 in assay [1], in assay [2] and in assay [3] were 2.6 nM, 0.6 nM and 269 nM, respectively.

With `Cn1cc(Nc2ncc(Cl)c(N3C[C@@H]4CN(S(C)(=O)=O)C[C@]4(C)C3)n2)cn1` (racemic) [Compound 61, cis-5-chloro-N-(1-methyl-1H-pyrazol-4-yl)-4-(3a-methyl-5-(methylsulfonyl)hexahydropyrrolo[3,4-c]pyrrol-2(1H)-yl)pyrimidin-2-amine], the IC50 in assay [1] came out at 8.9 nM; in assay [2], 1.6 nM; in assay [3], 578 nM.

Turning to `Cc1cnc(Nc2cnn(C)c2)nc1N1C[C@]2(C)CN(C(=O)CC(F)(F)F)C[C@]2(C)C1` [Compound 60, 1-((3aR.,6aS)-3a,6a-dimethyl-5-(5-methyl-2-((1-methyl-1H-pyrazol-4-yl)amino)pyrimidin-4-yl)hexahydropyrrolo[3,4-c]pyrrol-2(1H)-yl)-3,3,3-trifluoropropan-1-one], the IC50 in assay [1] turned out to be 5.9 nM; in assay [2] it was 2.2 nM; in assay [3] it was 1380 nM.

Turning to `Cn1cc(Nc2ncc(F)c(N3C[C@]4(C)CN(C(=O)C5CC5)C[C@]4(C)C3)n2)cn1` [Compound 11], the IC50 in assay [1] was determined as 137 nM; in assay [2], 21 nM; in assay [3], 6770 nM.

The values above are taken from patent US12448382B2, “Heterocyclic compounds for mediating tyrosine kinase 2 activity” (GUANGZHOU INNOCARE PHARMA TECH CO., LTD., priority 2019, dated 2025).
